According to patent US20170312300A1, “Methods for Treating Cancer” (Fundacion Centro National de Investigaciones Oncolgicas …, priority 2014, published 2017):

Columns and labels:
hepatocarcinogenesis = details: cited from earlier work
[1] = test system: model of hepatic carcinogenesis; details: cited from earlier work
advanced HCC = details: patients with advanced HCC; cited from earlier work
[2] = target: T1, kynurenine 3-monooxygenase (KMO) (Mus musculus, UniProt Q91WN4); assay: Ro-61-8048 treatment of C57BL/6 mice previously fed DDC diet (liver NAD+ and DNA damage); type: in vivo; details: 25 mg/Kg intraperitoneally for 3 consecutive days after 4 days DDC diet, vs DMSO
T1 construct: supplying C57BL/6 mice for 4 days with a DDC-supplemented diet; from tissue; host or cells: liver of living C57BL/6 mice (in vivo dosing)
Description: Freshly harvested murine livers were fixed immediately in 10% buffered formalin solution overnight and embedded in paraffin. Sections of 3 μm were deparafinized, rehydrated and antigen retrieved by using 1M sodium citrate buffer (pH 6.5). After blocking endogenous peroxidase using 3% H2O2 (in methanol) for 5 min, sections were then blocked with 1:200 goat serum 5% BSA/PBST for 1 h at RT. Furthermore, sections were incubated with primary antibodies overnight at 4° C., after which Vectastain ABC kit (Vector Laboratories, Inc) was used, following manufacturer's instructions. Sections were then incubated with 33-diaminobenzidinetetracloride (DBA) and counterstained with hematoxylin. In the case of immunofluorescence, sections were incubated with PE-conjugated secondary antibodies (1:500) for 1 h at RT, followed by DAPI staining. Quantification was performed either by counting the number of positive cells in a minimum of six 10× or 20× microscopic fields, or the percentage of positive area using Color Deconvolution plug-in in Image J.
NAD+ levels were determined using a commercial kit (Enzychrom, BioAssays Systems, CA), and as previously described (Canto et al., 2012, Cell Metab 15, 838-847). NAD+/NADH assay kit is based on a […] cycling reaction, in which the formed NADH reduces a formazan (MTT) reagent. […]

T1 sequence (Q91WN4 whole entry): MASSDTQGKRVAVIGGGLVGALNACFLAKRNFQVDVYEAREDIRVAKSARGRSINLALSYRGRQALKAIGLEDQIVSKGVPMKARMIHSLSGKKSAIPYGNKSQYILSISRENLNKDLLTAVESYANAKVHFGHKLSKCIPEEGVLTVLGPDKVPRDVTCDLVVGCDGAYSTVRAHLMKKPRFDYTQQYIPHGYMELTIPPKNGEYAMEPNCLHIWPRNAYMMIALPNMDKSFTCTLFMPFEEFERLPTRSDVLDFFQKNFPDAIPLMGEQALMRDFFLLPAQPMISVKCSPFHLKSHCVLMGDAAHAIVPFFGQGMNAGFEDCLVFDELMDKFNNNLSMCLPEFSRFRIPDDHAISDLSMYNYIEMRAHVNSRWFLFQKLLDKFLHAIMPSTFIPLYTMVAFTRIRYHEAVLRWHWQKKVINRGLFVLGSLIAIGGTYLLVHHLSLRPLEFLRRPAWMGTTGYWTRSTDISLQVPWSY

Structure (SMILES): NC(=O)c1cccnc1 [nicotinamide]
- hepatocarcinogenesis (hepatocarcinogenesis; both in vitro and in vivo): effectively inhibits
- formation of loci and adenomas (hepatocarcinogenesis; in vivo): lower formation
- number of foci, their diameter or proportion of liver occupied by loci [1]: no effect

Structure (SMILES): CNC(=O)c1cc(Oc2ccc(NC(=O)Nc3ccc(Cl)c(C(F)(F)F)c3)cc2)ccn1 [sorafenib]
- prolongation of survival compared to placebo (advanced HCC): around 2 months

Structure (SMILES): COc1ccc(S(=O)(=O)Nc2nc(-c3cccc([N+](=O)[O-])c3)cs2)cc1OC [Ro-61-8048]
- DNA damage foci (γH2AX) in livers [2]: significantly elevated
- NAD+ concentrations in livers [2]: reduced
